test system: HCV replication; assay: HCV replicon assay (luciferase), ET (Huh-lucubineo-ET) cell line; type: cell-based; conditions: Hepatitis C virus; tested at 10 μM; ET (Huh-lucubineo-ET) replicon cells; luciferase activity 48-72 hours; relative to no compound control
Experimental: A cell line, ET (Huh-lucubineo-ET) was used for screening of compounds of the present invention for inhibiting HCV replication. The ET cell line was stably transfected with RNA transcripts harboring a I389luc-ubi-neo/NS3-3′/ET; replicon with firefly luciferase-ubiquitin-neomycin phosphotransferase fusion protein and EMCV-IRES driven NS3-5B polyprotein containing the cell culture adaptive mutations (E1202G; T1280I; K1846T) (Krieger at al, 2001 and unpublished). The ET cells were grown in DMEM (Dulbeco's Modified Eagle's Medium), supplemented with 10% fetal calf serum, 2 mM Glutamine, Penicillin (100 IU/mL)/Streptomycin (100 μg/mL), 1× nonessential amino acids, and 250 μg/mL G418 (“Geneticin”). They were all available through Life Technologies (Bethesda, Md.). The cells were plated at 0.5-1.0×10^4 cells/well in the 96 well plates and incubated for 24 hrs before adding testing compounds. Then the compounds were added to the cells to achieve a final concentration of 0.1 nM to 50 μM and a final DMSO concentration of 0.5%. Luciferase activity were measured 48-72 hours later by adding a lysis buffer and the substrate (Catalog number Glo-lysis buffer E2661 and Bright-Glo luciferase system E2620 Promega, Madison, Wis.). Cells should not be too confluent during the assay. Percent inhibition of replication was plotted relative to no compound control. Under the same condition, cytotoxicity of the compounds was determined using cell proliferation reagent, WST-1 (Roche, Germany). The compounds showing antiviral activities, but no significant cytotoxicities were chosen to determine EC50 and TC50. For these determinations, a 10 point 2-fold serial dilution for each compound was used, which spans a concentration range of 1000 fold. EC50 and similarly TC50 values were calculated by fitting % inhibition at each concentration to the following equation:
% inhibition=100%/[(IC50/[I])^b+1]
where b is Hill's coefficient.
In some preferred embodiments compounds of Formula I will have a % inhibition of at least 20% when tested at 10 μM. In other embodiments the compounds of Formula I will have a % inhibition of at least 50% when tested at 10 μM.

SMILES | inhibition at 10 µM [%]
O=C(NC1CC1)c1ccc(-c2ccc3nc([C@@H]4CCCN4C(=O)OCc4ccccc4)[nH]c3c2)cc1 [Compound 4020, (S)-2-[6-(4-Cyclopropylcarbamoyl-phenyl)-1H-benzoimidazol-2-yl]-pyrrolidine-1-carboxylic acid benzyl ester] | 96.1
O=C(Cc1ccc(-c2ccc3nc([C@@H]4CCCN4C(=O)OCc4ccccc4)[nH]c3c2)cc1)NC1CC1 [Compound 4021, (S)-2-[6-(4-Cyclopropylcarbamoylmethyl-phenyl)-1H-benzoimidazol-2-yl]-pyrrolidine-1-carboxylic acid benzyl ester] | 64.5
O=C(NC1CC1)c1ccc(-c2ccc3nc([C@@H]4CCCN4C(=O)OCc4ccccc4)sc3c2)cc1 [Compound 4022, 2-[6-(4-Cyclopropylcarbamoyl-phenyl)-benzothiazol-2-yl]-pyrrolidine-1-carboxylic acid benzylester] | 14.9
O=C(Cc1ccc(-c2cccc(C#C[C@@H]3CCCN3C(=O)OCc3ccccc3)c2)cc1)NC1CC1 [Compound 4024, 2-(4′-Cyclopropylcarbamoyl-methyl-biphenyl-3-ylethynyl)-pyrrolidine-1-carboxylic acid benzylester] | 45.9
O=C(OCc1ccccc1)N1CCC[C@H]1c1nc2ccc(-c3cccs3)cc2[nH]1 [Compound 4029, (S)-2-(6-Thiophen-2-yl-1H-benzoimidazol-2-yl)-pyrrolidine-1-carboxylic acid benzyl ester] | 78.1
O=C(OCc1ccccc1)N1CCC[C@H]1c1nc2ccc(-c3ccco3)cc2[nH]1 [Compound 4030, (S)-2-(6-Furan-2-yl-1H-benzoimidazol-2-yl)-pyrrolidine-1-carboxylic acid benzyl ester] | 66.8
O=C(OCc1ccccc1)N1CCC[C@H]1c1nc2ccc(-c3ccc4c(c3)OCO4)cc2[nH]1 [Compound 4032, (S)-2-(6-Benzo[1,3]dioxol-5-yl-1H-benzoimidazol-2-yl)-pyrrolidine-1-carboxylic acid benzyl ester] | 25.8
O=C(OCc1ccccc1)N1CCC[C@H]1c1nc2ccc(-c3cc([N+](=O)[O-])c4[nH]ccc4c3)cc2[nH]1 [Compound 4033, (S)-2-[6-(7-Nitro-1H-indol-5-yl)-1H-benzoimidazol-2-yl]-pyrrolidine-1-carboxylic acid benzyl ester] | 97.5
NC(=O)Nc1ccc(-c2ccc3nc([C@@H]4CCCN4C(=O)OCc4ccccc4)[nH]c3c2)cc1 [Compound 4034, (S)-2-[6-(4-Ureido-phenyl)-1H-benzoimidazol-2-yl]-pyrrolidine-1-carboxylic acid benzyl ester] | 24.1
O=C(OCc1ccccc1)N1CCC[C@H]1c1nc2ccc(-c3ccc4[nH]ccc4c3)cc2[nH]1 [Compound 4035, (S)-2-[6-(1H-Indol-5-yl)-1H-benzoimidazol-2-yl]-pyrrolidine-1-carboxylic acid benzyl ester] | 99.9
O=C(Nc1cccc(-c2ccc3nc([C@@H]4CCCN4C(=O)OCc4ccccc4)[nH]c3c2)c1)C1CC1 [Compound 4037, (S)-2-{6-[3-(Cyclopropanecarbonyl-amino)-phenyl]-1H-benzoimidazol-2-yl}-pyrrolidine-1-carboxylic acid benzyl ester] | 97.6
O=C(OCc1ccccc1)N1CCC[C@H]1c1nc2ccc(-c3ccc4[nH]ccc4c3)cc2o1 [Compound 4039, (S)-2-[6-(1H-Indol-5-yl)-benzooxazol-2-yl]-pyrrolidine-1-carboxylic acid benzyl ester] | 49.6
O=C(NCc1ccc(-c2cccc(C#C[C@@H]3CCCN3C(=O)OCc3ccccc3)c2)cc1)C1CC1 [Compound 4041, (S)-2-{4′-[(Cyclopropanecarbonyl-amino)-methyl]-biphenyl-3-ylethynyl}-pyrrolidine-1-carboxylic acid benzyl ester] | 45.8
CC(=O)c1cccc(-c2ccc3nc([C@@H]4CCCN4C(=O)OCc4ccccc4)[nH]c3c2)c1 [Compound 4045, (S)-2-[6-(3-Acetyl-phenyl)-1H-benzoimidazol-2-yl]-pyrrolidine-1-carboxylic acid benzyl ester] | 99.8
O=C(OCc1ccccc1)N1CCC[C@H]1c1nc2ccc(-c3ccc4[nH]c5ccccc5c4c3)cc2[nH]1 [Compound 4047, (S)-2-[6-(9H-Carbazol-3-yl)-1H-benzoimidazol-2-yl]-pyrrolidine-1-carboxylic acid benzyl ester] | 98.2
N#Cc1ccc(-c2ccc3nc([C@@H]4CCCN4C(=O)OCc4ccccc4)[nH]c3c2)cc1 [Compound 4049, (S)-2-[6-(4-Cyano-phenyl)-1H-benzoimidazol-2-yl]-pyrrolidine-1-carboxylic acid benzyl ester] | 20
Cc1nc2cc(-c3ccc4nc([C@@H]5CCCN5C(=O)OCc5ccccc5)[nH]c4c3)ccc2s1 [Compound 4051, (S)-2-[6-(2-Methyl-benzothiazol-5-yl)-1H-benzoimidazol-2-yl]-pyrrolidine-1-carboxylic acid benzyl ester] | 32.8
O=C(OCc1ccccc1)N1CCC[C@H]1c1nc2ccc(-c3cccc(O)c3)cc2[nH]1 [Compound 4054, (S)-2-[6-(3-Hydroxy-phenyl)-1H-benzoimidazol-2-yl]-pyrrolidine-1-carboxylic acid benzyl ester] | 99.3
O=C(NC1CC1)c1ccc(-c2csc(NC[C@@H]3CCCN3C(=O)OCc3ccccc3)n2)cc1 [Compound 4055, (S)-2-{[4-(4-Cyclopropylcarbamoyl-phenyl)-thiazol-2-ylamino]-methyl}-pyrrolidine-1-carboxylic acid benzyl ester] | 44
O=C(NCc1cccc(-c2ccc3nc([C@@H]4CCCN4C(=O)OCc4ccccc4)[nH]c3c2)c1)C1CC1 [Compound 4057, (S)-2-(6-{3-[(Cyclopropanecarbonyl-amino)-methyl]-phenyl}-1H-benzoimidazol-2-yl)-pyrrolidine-1-carboxylic acid benzyl ester] | 99.4
O=C(NC1CC1)c1ccc(-c2cccc(C#C[C@@H]3CCCN3C(=O)OCc3ccccc3)c2)cc1 [Compound 4060, (S)-2-(4′-Cyclopropylcarbamoyl-biphenyl-3-ylethynyl)-pyrrolidine-1-carboxylic acid benzyl ester] | 48.4
